Test results: patent US8758731B2, “Skin lightening by topical application of 1-hydroxyl 3,5-bis(4′hydroxyl styryl)benzene” (Johnson & Johnson Consumer Companies, Inc., priority 2012, dated 2014)
“And” between values parts separate entries of the source, which are not always exact repeats. Identical values can stand only once.

Columns and labels:
Mushroom tyrosinase = assay: Tyrosinase inhibition test (mushroom tyrosinase, L-dopa, OD 492 nm); assay type: biochemical; conditions: 10 mM L-dopa, 37° C., 30 min, duplicate
Procedure: Ultraviolet (UV) radiation from the sun is the most important external stimulus for melanin formation leading to skin darkening. Reducing melanin formation in the skin may be achieved by inhibiting multiple steps of the melanin biogenesis process. Tyrosinase is the key regulatory enzyme of melanogenesis. Agents that inhibit tyrosinase will reduce melanin synthesis.
1-Hydroxyl 3,5-bis(4′hydroxyl styryl)benzene (0.0001, 0.001, and 0.01% w/v) was tested for tyrosinase inhibition as follows.
Mushroom tyrosinase samples (Sigma, T7755, 10 U/reaction) were treated with the samples of 1-hydroxyl 3,5-bis(4′hydroxyl styryl)benzene and control samples. Reaction was initiated by addition of 10 mM L-dopa (Research Organics, #2111D) at 37° C. Tyrosinase activity was measured by recording light absorption (optical density) at 492 nm after 30 min for both control samples (no exposure to test compound) and test samples that were exposed to the test compound.
Percent Inhibition of Tyrosinase was related to the reduction in absorption at 492 nm (relative to the control) by the following formula: Percent Inhibition of Tyrosinase=[Tcontrol−Tsample/Tcontrol)]*100 where Tcontrol is the tyrosinase activity of the control and Tsample is the tyrosinase activity in the presence of test compound. Samples were tested in duplicate and Percent Inhibition of Tyrosinase was averaged and standard deviation was reported.

[1] = test system: murine melanoma B16(F10) cells; assay: Inhibition of UV-induced Melanogenesis test; assay type: cell-based; conditions: for Percent inhibition of UV-induced melanogenesis (mean ± SD): B16(F10), UVB 200 mJ/cm^2, 24 h post UVB
Procedure: One or more samples of B16(F10) cells were prepared and each pre-treated with a test sample followed by UVB exposure as described below. Upon treatment, UVB stimulated melanogenesis in the cells and test compounds were evaluated based on their ability to inhibit or slow down the rate of melanogenesis. The cells were lysed for protein measurement at 595 nm and melanin content at 470 nm. The potency of the test compounds were determined by comparing the % inhibition achieved by the test compounds against the treated control.
On a first day, murine melanoma B16(F10) cells were seeded in 60 mm plates with a density of ˜1 million cells per plate and incubated for […] at 37° C., 5% CO2. On day 2, the cells with a confluency rate of 90-100% were treated with test compound at a predetermined concentration (e.g. 25 mg/mL) for two hours (for test compound samples only) followed by exposure to UVB 200 mJ/cm^2 (for test samples and treated control). The cells were harvested on day 3 (24 h post UVB irradiation for test samples and treated control) and lysed in protein lysis buffer (50 mM Tris, pH 8, 2 mM EDTA, 150 mM NaCl, and 1% TRITON X 100—a nonionic surfactant purchased from BioRad Cat.#: 161-0407), and centrifuged.
The resulting supernatant was mixed well with a protein dye assay (Bio-rad protein assay reagent) and a spectrophotometer (Molecular Devices VERSAmax) was used to determine the optical density (OD) of the sample at 595 nm, which was recorded as the “protein assay OD.” The cell pellet remaining after removal of the supernatant was dissolved in alkaline DMSO buffer, and the resulting solution was similarly tested using a spectrophotometer for melanin absorbance assay at 470 nm. The absorbance was recorded as the “melanin assay OD.”
Control samples of B16(F10) murine melanoma cells were prepared and harvested as indicated above, but without addition of any test sample and without exposure to UVB (untreated control). Other samples were prepared and harvested as indicated above, but without addition of test sample and exposed to UVB as described below (treated control).
Three samples each of the untreated control, treated control, and each test sample were made and the Melanin OD and Protein OD measured for each. The normalized melanin for each untreated control (3 samples), treated control (3 samples) and test sample (3 samples for each test compound) was calculated via the following equation: Normalized Melanin=melanin assay OD/protein assay OD. The averages of the Normalized Melanin of the untreated controls and treated controls were calculated (sum of the three calculated values/3).
The Induction value of the Control (which can be thought of as the UV-induced increase in melanin, without the benefit of any test sample to reduce melanogensis) was determined by subtracting the average Normalized Melanin of untreated control from the average Normalized Melanin of treated control. Similarly, the Induction value of each test sample (which can be thought of as the amount of additional melanin over and above the baseline of the sample not treated with UV) was then calculated by subtracting average Normalized Melanin of untreated control from the Normalized Melanin of the test sample. The Percent Inhibition for each test sample was then calculated via the equation: Percent Inhibition=100×[(Induction value of Control−Induction value with Test Sample)/Induction value of Control].
The average Percent Inhibition was calculated as the sum of the three resulting Inhibition % values for each test sample divided by three.

[2] = test system: MelanoDerm skin epidermal equivalent tissues (NHEK and NHM); assay: Inhibition of pigmentation in skin epidermal equivalent tissues (MatTek MelanoDerm MEL-300-B); assay type: cell-based, human; conditions: measured day 9, vs vehicle-treated control
Procedure: Skin epidermal equivalent tissues obtained from MatTek's MelanoDerm™ System were used as follows. MatTek's MelanoDerm™ System consists of normal, human-derived epidermal keratinocytes (NHEK) and melanocytes (NHM) which have been cultured to form a multilayered, highly differentiated model of the human epidermis. Specifically, MEL-300-B tissues, each 9 mm in diameter were used in the following tests.
1-Hydroxyl 3,5-bis(4′hydroxyl styryl)benzene and its piperazine salt were prepared in an appropriate vehicle and applied topically to the skin model daily. The experiment lasted for eight days. Measurement was taken on day 9.
The Degree of Lightness for each skin model tissue (L-Value) was measured using a spectrophotometer (Konica Minolta CM-2600d). The ΔL (degree of lightness as compared to vehicle-treated control) for each test sample was calculated using following formula: ΔL=L-value of treated sample−L-value of control sample

[3] = test system: murine melanoma B16(F10) cells; assay: Inhibition of UV-induced Melanogenesis test; assay type: cell-based; conditions: 0.0001%; average of S1 and S2
[4] = 0.5% topically daily for eight days

| Compound | Percent Inhibition of Tyrosinase activity (mean ± standard deviation) (Mushroom tyrosinase; 0.0001% w/v test compound) | Percent Inhibition of Tyrosinase activity (mean ± standard deviation) (Mushroom tyrosinase; 0.001% w/v test compound) | Percent Inhibition of Tyrosinase activity (mean ± standard deviation) (Mushroom tyrosinase; 0.01% w/v test compound) | Percent inhibition of UV-induced melanogenesis (mean ± SD) ([1]; 0.00001% test compound) | Percent inhibition of UV-induced melanogenesis (mean ± SD) ([1]; 0.00005% test compound) | Percent inhibition of UV-induced melanogenesis (mean ± SD) ([1]; 0.0001% test compound) | Degree of Lightness (ΔL) ([2]; 0.1% topically daily for eight days) | Degree of Lightness (ΔL) ([2]; 0.25% topically daily for eight days) | Degree of Lightness (ΔL) [2, 4] | Induction value with Test sample ([1]; 0.0001%, single test samples S1, S2, Normalized Melanin minus untreated control 0.122, listed as 1-hydroxyl 3,5-bis(4′hydroxyl styryl)benzene—Free Phenol) | Normalized Melanin value (melanin assay OD/protein assay OD) ([1]; 0.0001%, single test samples S1, S2, listed as 1-hydroxyl 3,5-bis(4′hydroxyl styryl)benzene—Free Phenol) | Percent Inhibition for Test sample (Ave) [3] |
| --- | --- | --- | --- | --- | --- | --- | --- | --- | --- | --- | --- | --- |
| 1-hydroxyl 3,5-bis(4′hydroxyl styryl)benzene - Piperazine salt | 2.03 ± 3.94% | 11.52 ± 3.16% | 16.64 ± 2.76% | 13.93 ± 11.33% | 33.52 ± 1.54% | 55.70 ± 4.44% | 1.46 ± 0.71 | 2.83 ± 0.41 | 4.60 ± 0.61 |  |  |  |
| Oc1ccc(/C=C/c2cc(O)cc(/C=C/c3ccc(O)cc3)c2)cc1 [1-Hydroxyl 3,5-bis(4′hydroxylstyryl)benzene] | 3.3 ± 1.95% | 8.21 ± 1.27% | 11.84 ± 3.22% | 18.93 ± 5.92% | 33.27 ± 4.39% | 40.49 ± 2.04% |  |  | 4.23 ± 0.64 | 0.19 − 0.122 = 0.068 and 0.187 − 0.122 = 0.065 | 0.19 (S1) and 0.187 (S2) | Ave = (39.05 + 41.93)/2 = 40.49% |
